Laboratory results: patent US8697731B2, “Derivatives of 2-pyridin-2-yl-pyrazol-3(2H)-one, preparation and therapeutic use thereof” (Sanofi, priority 2008, dated 2014)
Structures can show the parent of a compound that is named as a salt.

Columns and labels:
HIF1-alpha = assay: Measurement of the stabilization of HIF1-alpha in HEKEA cells (beta-galactosidase complementation); type: cell-based, human; settings: HEKEA_HIF1-alphaPLBL cells, 6 hours under normoxia, luminescence; molar concentration that produces 50% of the maximum response of this same compound
Text: Furthermore, a subject of the invention is also a uniform test for the direct measurement by beta-galactosidase complementation of the amount of HIF1-alpha protein in the nucleus of cells, preferably HEK cells, after treating the said cells with one or more test compounds, which consists in: • (a) inoculating, preferably in 384-well plates, the said cells in a suitable culture medium, preferably 1% foetal calf serum (abbreviated as FCS); • (b) adding the test compound(s) at a suitable concentration in a suitable solvent to the cells previously inoculated in the said culture medium; preferably the test compounds are diluted in 0.1% FCS; • (c) incubating the said cells thus prepared in an indicator at about 37° C., advantageously for about 6 hours; • (d) lysing the cells with a lysis buffer containing a chemiluminescent substrate for beta-galactosidase; • (e) incubating in the absence of light, before reading and measuring the luminescence, which is a function of the beta-galactosidase activity.
The test is a cell test based on the principle of enzyme complementation, the enzyme used herein being beta-galactosidase. HEKEA cells are HEK cells stably expressing, and restricted in their nucleus, mutant beta-galactosidase (omega fragment, also known as EA) (line sold by DiscoverX). This construct makes it possible to obtain beta-galactosidase activity only when the protein comprising the Prolabel complementation fragment has migrated into the nucleus.
The protein of interest comprising the Prolabel fragment is in this case an HIF1-alpha or HIF1-alpha mutated at the two prolines 402 and 564 replaced with alanines, is C-terminal fused via molecular biology (DiscoverX vector sold by Clontech) with the small complementation peptide fragment (Prolabel or ED, about 4 kDa). The vector coding for the chimeric protein HIF1-alpha_Prolabel is then transfected into HEKEA cells to obtain stable clones (HEKEA_HIF1-alphaPLBL).
The amount of C-terminal Prolabel-“labelled” HIF1-alpha protein obtained after treating the cells to hypoxia or compounds that are potentially HIF activators is measured by adding to the cells a lysis buffer containing a chemiluminescent substrate for beta-galactosidase.
The measurement of the beta-galactosidase activity will be proportional to the amount of Prolabel and thus of HIF1-alpha that has migrated into the nucleus of the cells.
1.3.1 Experiment Plan • 1) Inoculation of the cells on D0 • 2) Adherence for 24 hours under normoxia • 3) Preparation and addition of the products (Biomek 2000 and FX) on D+1 • 4) Incubation under normoxia for 6 hours • 5) Reading of the plates (by luminescence)
The cells are inoculated with Multidrop in white, opaque-bottomed 384-well plates (Greiner ref 3704), in 30 μl of culture medium (1% FCS) a 10000 cells/well (cell plate).
The test products are prepared at 3×10^−2 M in 100% DMSO and then diluted to 3×10^−4 M in medium containing 0.1% FCS (10 μl in 990 μl of MEM). They are then deposited by hand into column 12 of a round-bottomed 96-well plate (200 μl of each compound) known as the dilution plate (dl). The complete DL plate of 3×10^−4 M to 10^−9 M is then prepared with Biomek 2000 (programme: range of 10 points in series). For the references and controls, 100 μl of DMEM containing 0.1% FCS are added to column 1, 100 μl of Deferoxamine 10^−3M to column 2, wells A B C D and 100 μl of Deferoxamine 5×10^−3 M to column 2, wells E F G H.
3.3 μL are taken from the DL plate by pipetting with a Biomek FX 96 and placed in horizontal duplicate (columns 1 to 24) in each 384-well cell plate (HEKEA_HIF1-alphaPLBL cell plate).
The cells are then placed for 6 hours in an incubator at 37° C. (ambient O2, 6% CO2).
The kit used is the Prolabel chemiluminescent kit (Ref 93-0001 DiscoverX). […]

Structure (SMILES)	melting point	EC50 (HIF1-alpha)
CN(Cc1ccccn1)S(=O)(=O)c1ccc(-n2[nH]c3c(c2=O)CSC3)nc1 (as salt: HCl) [Compound 27, N-methyl-6-(3-oxo-4,6-dihydro-1H-thieno[3,4-c]pyrazol-2(3H)-yl)-N-(pyridin-2-ylmethyl)pyridine-3-sulfonamide]	198 °C	–
CN(C)c1ccnc(-n2[nH]c3c(c2=O)CSC3)c1 (as salt: HCl) [Compound 60, 2-[4-(dimethylamino)pyridin-2-yl]-1,2,4,6-tetrahydro-3H-thieno[3,4-c]pyrazol-3-one hydrochloride]	182 °C	–
CCN(C(C)(C)C)S(=O)(=O)c1ccc(-n2nc3c(c2O)CSC3)nc1 (as salt: Na) [Compound 32, sodium 2-{5-[tert-butyl(ethyl)sulfamoyl]pyridin-2-yl}-2,6-dihydro-4H-thieno[3,4-c]pyrazol-3-olate]	> 260 °C	–
CCN(c1ccccc1)S(=O)(=O)c1ccc(-n2nc3c(c2O)N(Cc2ccccc2)C(=O)CC3)nc1 (as salt: Na) [Compound 35, sodium 4-benzyl-2-{5-[ethyl(phenyl)sulfamoyl]pyridin-2-yl}-5-oxo-4,5,6,7-tetrahydro-2H-pyrazolo[4,3-b]pyridin-3-olate]	> 250 °C	–
CN(C(C)(C)C)S(=O)(=O)c1ccc(-n2nc3c(c2O)CSC3)nc1 (as salt: Na) [Compound 36, sodium 2-{5-[tert-butyl(methyl)sulfamoyl]pyridin-2-yl}-2,6-dihydro-4H-thieno[3,4-c]pyrazol-3-olate]	130 °C	–
CCc1ccnc(-n2[nH]c3c(c2=O)CSC3)c1 (as salt: Na) [Compound 61, sodium 2-(4-ethylpyridin-2-yl)-2,6-dihydro-4H-thieno[3,4-c]pyrazol-3-olate]	> 260 °C	–
Oc1c2c(nn1-c1cc(OCc3cccnc3)ccn1)CSC2 (as salt: Na) [Compound 64, sodium 2-[4-(pyridin-3-ylmethoxy)pyridin-2-yl]-2,6-dihydro-4H-thieno[3,4-c]pyrazol-3-olate]	> 260 °C	–
O=c1c2c([nH]n1-c1ccccn1)CCC2 [Compound 7, 2-(pyridin-2-yl)-1,4,5,6-tetrahydrocyclopenta[c]pyrazol-3(2H)-one]	156 °C	6 µM
COC1CCc2c1[nH]n(-c1ccccn1)c2=O (stereo not shown) [Compound 11, 6-methoxy-2-(pyridin-2-yl)-1,4,5,6-tetrahydrocyclopenta[c]pyrazol-3(2H)-one]	76 °C	–
O=c1c2c([nH]n1-c1ccccn1)CCSC2 [Compound 12, 2-(pyridin-2-yl)-1,4,6,7-tetrahydrothiopyrano[4,3-c]pyrazol-3(2H)-one]	175 °C	–
O=c1c2c([nH]n1-c1ccc(S(=O)(=O)Nc3ccccn3)cn1)CSC2 [Compound 23, 6-(3-oxo-4,6-dihydro-1H-thieno[3,4-c]pyrazol-2(3H)-yl)-N-(pyridin-2-yl)pyridine-3-sulfonamide]	> 260 °C	12 µM
CN(Cc1ccccn1)S(=O)(=O)c1ccc(-n2[nH]c3c(c2=O)CSC3)nc1 [Compound 27, N-methyl-6-(3-oxo-4,6-dihydro-1H-thieno[3,4-c]pyrazol-2(3H)-yl)-N-(pyridin-2-ylmethyl)pyridine-3-sulfonamide]	–	9.5 µM
Cc1ccc(-n2nc3c(c2[O-])CSC3)nc1.[Na+] [Compound 31, sodium 2-(5-methylpyridin-2-yl)-2,6-dihydro-4H-thieno[3,4-c]pyrazol-3-olate]	> 220 °C	–
CC(C)(C)NC(=O)c1ccc(-n2nc3c(c2O)CSC3)nc1 [Compound 33, sodium 2-[5-(tert-butylcarbamoyl)pyridin-2-yl]-2,6-dihydro-4H-thieno[3,4-c]pyrazol-3-olate]	–	9.4 µM
COc1ccc(-n2nc3c(c2[O-])CSC3)nc1.[Na+] [Compound 34, sodium 2-(5-methoxypyridin-2-yl)-2,6-dihydro-4H-thieno[3,4-c]pyrazol-3-olate]	> 220 °C	10 µM
CCN(c1ccccc1)S(=O)(=O)c1ccc(-n2[nH]c3c(c2=O)CCCCCC3)nc1 [Compound 37, N-ethyl-6-(3-oxo-1,3,4,5,6,7,8,9-octahydro-2H-cycloocta[c]pyrazol-2-yl)-N-phenylpyridine-3-sulfonamide]	200 °C	2.2 µM
CCN(CC)S(=O)(=O)c1ccc(-n2[nH]c3c(c2=O)CSC3)nc1 [Compound 38, N,N-diethyl-6-(3-oxo-4,6-dihydro-1H-thieno[3,4-c]pyrazol-2(3H)-yl)pyridine-3-sulfonamide]	192 °C	3.8 µM
O=c1c2c([nH]n1-c1ccc(S(=O)(=O)N(CC(O)CO)C3CCCC3)cn1)CSC2 (stereo not shown) [Compound 53, N-cyclopentyl-N-(2,3-dihydroxypropyl)-6-(3-oxo-4,6-dihydro-1H-thieno[3,4-c]pyrazol-2(3H)-yl)pyridine-3-sulfonamide]	190 °C	–
CC(C)(C)COC(=O)c1ccc(-n2[nH]c3c(c2=O)CN(S(C)(=O)=O)CC3)nc1 [Compound 54, 2,2-dimethylpropyl 6-[5-(methylsulfonyl)-3-oxo-1,3,4,5,6,7-hexahydro-2H-pyrazolo[4,3-c]pyridin-2-yl]pyridine-3-carboxylate]	230 °C	–
CN(C)c1ccnc(-n2[nH]c3c(c2=O)CSC3)c1 [Compound 60, 2-[4-(dimethylamino)pyridin-2-yl]-1,2,4,6-tetrahydro-3H-thieno[3,4-c]pyrazol-3-one hydrochloride]	–	21 µM
Cc1ccnc(-n2nc3c(c2[O-])CSC3)c1.[Na+] [Compound 62, sodium 2-(4-methylpyridin-2-yl)-2,6-dihydro-4H-thieno[3,4-c]pyrazol-3-olate]	> 250 °C	3.9 µM
CC(C)c1ccnc(-n2[nH]c3c(c2=O)CSC3)c1 [Compound 65, 2-[4-(propan-2-yl)pyridin-2-yl]-1,2,4,6-tetrahydro-3H-thieno[3,4-c]pyrazol-3-one]	92 °C	–
